Assay results from patent US20220023317A1, “PREVENTING OR MITIGATING CHEMOTHERAPY INDUCED ALOPECIA USING VITAMIN D” (Berg LLC, priority 2013, published 2022).

What was measured:
MCF-7 = experiment: Cell growth / viability assay; type: cell-based
PC-3 = experiment: Cell growth / viability assay; type: cell-based; conditions: 0.1 μg/mL calcitriol for two passages
Description: In these experiments, a selected commercial drug was serially diluted, starting at a concentration 4-times higher than the final desired concentration for cell incubation. […] The drug treatment period was usually three days. At the end of the three days, the background OD of the 96-well plate was read at 280 nm, before 20 μL of the “Substrate Cell Titer 96 Aqueous One Solution Reagent” (Promega) was added to each well. […] The net OD increase was calculated by subtracting the pre-substrate OD reading. The impact of the drug on the cells was calculated by comparing the OD at different concentrations in relation to the OD of the control wells (without the drug). The results of the Net OD as a function of drug concentration was plotted and used to determine ED50 values. […] Then these pretreated cells were utilized to set up the cell based assay.

HEKa cells = experiment: Protection of HEKa cells by calcitriol against chemotherapeutic drugs; type: cell-based, human
Description: These include: erlotinib (Tarceva), an EGFR Tyr kinase inhibitor; gefutubib (Iressa), an EGFR Tyr kinase inhibitor; sorafenib, inhibitor of several Tyr kinases (Raf, VEGF-R2, c-kit, PDGR-R); Dasatinib, a BCR/ABL Tyr kinase inhibitor; and staurosporin, a relatively nonspecific kinase inhibitor.
The drug treatment period was usually three days. At the end of the three days, the background OD of the 96-well plate was read at 280 nm, before 20 μL of the “Substrate Cell Titer 96 Aqueous One Solution Reagent” (Promega) was added to each well. The plate was returned to the 37° C. incubator, and its OD at 490 nm was read each hour until an OD of approximately 1.5 was reached. The net OD increase was calculated by subtracting the pre-substrate OD reading.
The impact of the drug on the cells was calculated by comparing the OD at different concentrations in relation to the OD of the control wells (without the drug).

[1] = Quantification of calcitriol in ex vivo porcine skin layers; set-up: species or system minipig
Source text: The skin sections were weighed and the weight recorded.

Sprague Dawley rats [2] = experiment: Neonatal rat model of CIA, 1,25(OH)2D3 in ethanol; type: in vivo; conditions: 0.2 μg in 150 μL ethanol topical, days 5-10; CTX 35 mg/kg; all 10 animals
Source text: Neonatal Rat model and PCA model. Sprague Dawley rats were purchased from Charles River Laboratories (Wilmington, Mass.). C3H/HeJ mouse were purchased from Jackson Laboratories (Bar Harbour, Me.).Rodents were housed and fed according to NIH guidelines. For experiments involving chemotherapy, cyclophosphamide was purchased from Mead Johnson (Evansville, Ind.) and Etoposide was obtained from Bristol-Myers (Evansville, Ind.). 1,25(OH)2D3 powder was a gift from Dr. Uskokovic (Hoffman-La Roche, Nutley, N.J.). For experiments involving C3H/HeJ mice, 1,25(OH)2D3 was purchased from Sigma (St. Louis, Mo.). Topical application of 1,25(OH)2D3. 1,25(OH)2D3 was dissolved in absolute ethanol and applied topically with an applicator. Control animals were similarly treated with vehicle only. […] For CIA experiments, 1,25(OH)2D3 was given daily beginning on day 5 after birth and ending on day 10. […] For CIA and PCA, the experimental group was treated with 0.2 μg of 1,25(OH)2D3 in 150 μL of absolute ethanol applied topically over the head and neck. In both instances, the control group received ethanol vehicle only. Cyclophosphamide (35 mg/kg) was given intraperitoneally for one day only. […] Both chemotherapies were started at 11 days of age. Alopecia was recorded on the tenth day after the first dose of chemotherapy.

Sprague Dawley rats [3] = experiment: PCA model, hair regrowth in alopecic rats; type: in vivo, rat; conditions: 0.2 μg topical days 22-35, rats alopecic from cyclophosphamide or etoposide; controls day 42
Description: Topical application of 1,25(OH)2D3. 1,25(OH)2D3 was dissolved in absolute ethanol and applied topically with an applicator. Control animals were similarly treated with vehicle only. […] For CIA experiments, 1,25(OH)2D3 was given daily beginning on day 5 after birth and ending on day 10. […] For CIA and PCA, the experimental group was treated with 0.2 μg of 1,25(OH)2D3 in 150 μL of absolute ethanol applied topically over the head and neck. In both instances, the control group received ethanol vehicle only. Cyclophosphamide (35 mg/kg) was given intraperitoneally for one day only. […] Both chemotherapies were started at 11 days of age. Alopecia was recorded on the tenth day after the first dose of chemotherapy. […] Rats were randomized into two groups of ten rats each. One group received vehicle control, while the other received 0.2 μg 1,25(OH)2D3. […] Animals were observed until complete hair regrowth was obtained.

[4] = test system: EMT-6 murine breast tumor; conditions: male mice, topical calcitriol before i.p. cyclophosphamide; cited from earlier work
[5] = Female Minipigs, 10 μg/mL, mean ± SD
[6] = Female Minipigs, 30 μg/mL, mean ± SD
[7] = Male Minipig (1 animal), 100 μg/mL, mean ± SD
[8] = Male Minipigs, 3 μg/mL, mean ± SD
[9] = Male Minipigs, 10 μg/mL, mean ± SD
[10] = Male Minipigs, 30 μg/mL, mean ± SD

C=C1/C(=C\C=C2/CCC[C@]3(C)[C@@H]([C@H](C)CCCC(C)(C)O)CC[C@@H]23)C[C@@H](O)C[C@@H]1O [Calcitriol, (1a.3B.5Z.7E)-9,10-secocholesta-5,7,10(19)-triene-1,3,25-triol]
effect of calcitriol on cytotoxic effect of Doxorubicin (MCF-7): did not appear to appreciably alter | response to doxorubicin, cisplatin, erlotinib after calcitriol exposure (MCF-7; 0.1 μg/mL calcitriol for two passages): did not alter | concentrations giving growth inhibition (MCF-7; high concentrations): > 0.5 µg/mL | concentrations giving growth stimulation (MCF-7; low concentrations): 0.05 to 0.25 µg/mL | response to doxorubicin, cisplatin, erlotinib after calcitriol exposure (PC-3): did not alter | protective effect against 5-FU (HEKa cells; 0.1 μg/mL calcitriol): mild protective effect | protective effect against doxorubicin (HEKa cells; 0.1 μg/mL calcitriol): did not appear to provide a significant protective effect | protective effect against gemcitabine (HEKa cells; 0.1 μg/mL calcitriol): mild protective effect | protective effect against irinotecan (HEKa cells; 0.1 μg/mL calcitriol): positive protective effect | protective effect against paclitaxel (HEKa cells; 0.1 μg/mL calcitriol): some protective effects | protective effect against tamoxifen (HEKa cells; 0.1 μg/mL calcitriol): weak | interaction (synergy) between calcitriol and drugs tested (HEKa cells; 0.1 μg/mL calcitriol premixed with 15 drugs, three days): no interaction | protection against alkylating agents cisplatin and carboplatin (HEKa cells; 0.1 μg/mL calcitriol, low dosage levels): moderate level of protection | protective effect against kinase inhibitor drugs (HEKa cells; 0.1 μg/mL calcitriol, erlotinib, gefitinib, sorafenib, dasatinib, staurosporin at low drug dosage): provided certain growth stimulation and protected the HEKa cells | Stratum Corneum calcitriol recovered ([1]; Female Minipigs, 1 μg/mL, mean ± SD): 0.76 ± 1.3 (3) ng/cm^2 | Dermis calcitriol recovered ([1]; Female Minipigs, 1 μg/mL, zero = below Lower Limit of Detection): 0 ± 0 (3) ng/mg | Stratum Corneum calcitriol recovered ([1]; Female Minipigs, 3 μg/mL, mean ± SD): 1.12 ± 1.49 (3) ng/cm^2 | Dermis calcitriol recovered ([1]; Female Minipigs, 3 μg/mL, zero = below Lower Limit of Detection): 0 ± 0 (3) ng/mg | Epidermis calcitriol recovered [1, 5]: 0.02 ± 0.04 (3) ng/mg | Stratum Corneum calcitriol recovered [1, 5]: 1.65 ± 1.80 (3) ng/cm^2 | Dermis calcitriol recovered ([1]; Female Minipigs, 10 μg/mL, zero = below Lower Limit of Detection): 0.0 ± 0.0 (3) ng/mg | Epidermis calcitriol recovered [1, 6]: 0.34 ± 0.24 (3) ng/mg | Stratum Corneum calcitriol recovered [1, 6]: 20.2 ± 11.7 (3) ng/cm^2 | Dermis calcitriol recovered ([1]; Female Minipigs, 30 μg/mL, zero = below Lower Limit of Detection): 0.0 ± 0.0 (3) ng/mg | Dermis calcitriol recovered [1, 7]: 0.13 ± 0.04 (1) ng/mg | Epidermis calcitriol recovered [1, 7]: 2.09 ± 1.0 (1) ng/mg | Stratum Corneum calcitriol recovered [1, 7]: 118.1 ± 11.4 (1) ng/cm^2 | Epidermis calcitriol recovered ([1]; Male Minipigs, 1 μg/mL, mean ± SD): 0.16 ± 0.28 (3) ng/mg | Stratum Corneum calcitriol recovered ([1]; Male Minipigs, 1 μg/mL, twice daily 7 days, mean ± SD): 56.1 ± 17.4 (3) ng/cm^2 | Dermis calcitriol recovered ([1]; Male Minipigs, 1 μg/mL, zero = below Lower Limit of Detection): 0.0 ± 0.0 (3) ng/mg | Epidermis calcitriol recovered [1, 8]: 0.14 ± 0.23 (3) ng/mg | Stratum Corneum calcitriol recovered [1, 8]: 62.4 ± 7.91 (3) ng/cm^2 | Dermis calcitriol recovered ([1]; Male Minipigs, 3 μg/mL, zero = below Lower Limit of Detection): 0.0 ± 0.0 (3) ng/mg | Epidermis calcitriol recovered [1, 9]: 0.23 ± 0.20 (3) ng/mg | Stratum Corneum calcitriol recovered [1, 9]: 59.6 ± 14.1 (3) ng/cm^2 | Dermis calcitriol recovered ([1]; Male Minipigs, 10 μg/mL, zero = below Lower Limit of Detection): 0.0 ± 0.0 (3) ng/mg | Epidermis calcitriol recovered [1, 10]: 0.38 ± 0.33 (3) ng/mg | Stratum Corneum calcitriol recovered [1, 10]: 54.6 ± 32.5 (3) ng/cm^2 | Dermis calcitriol recovered ([1]; Male Minipigs, 30 μg/mL, zero = below Lower Limit of Detection): 0.0 ± 0.0 (3) ng/mg | protection from cyclophosphamide-induced alopecia (Sprague Dawley rats [2]): did not develop alopecia | day of total body hair regrowth (Sprague Dawley rats [3]): 50 days | rate of tumor growth vs either agent alone [4]: greater reduction in the rate of tumor growth
